{
  "source": "patent US20170165259A1",
  "about": "“COMBINED MODULATION OF IRE1” (THE REGENTS OF THE UNIVERSITY OF CALIFORNIA, priority 2014, published 2017)",
  "key": {"adult rats": {"tested_on": "adult rats", "experiment": "Tm-induced acute photoreceptor loss, intravitreal co-injection", "format": "in vivo", "conditions": "Tm at 3 μg/ml", "protocol": "[…]. […] Rhodopsin mRNA may be an IRE1α RNase substrate since Rhodopsin RNA is cleaved by IRE1α*, but not RNase-dead IRE1α* (N906A), at a primary G/C site with flanking sequence similarity to scission sites in XBP1.\nNext, to test whether KIRA6 also provides functional protection, we established a dose-response curve to determine threshold [Tm] that cause functional retinal damage as measured by scotopic electroretinograms (ERG). Based on the results, we injected Tm at 3 μg/ml.\nMice were anaesthetized with 1.5-3% isoflurane, eyes were dilated with 2.5% phenylephrine hydrochloride and 1% tropicamide, and corneas were kept moist with regular application of 2.5% methylcellulose. Eyes were examined using a Micron III retinal imaging system (Phoenix Research Labs). […]\nRats dark-adapted overnight were anesthetized with ketamine (100 mg/ml) and xylazine (20 mg/ml) via intraperitoneal injection in dim red light. […] Briefly, […] flashes of white light of increasing intensities were used to induce bilateral, full-field ERGs; responses were recorded using contact lens electrodes with a UTAS-E 3000 Visual Electrodiagnostic System (LKC Technologies, Inc.). […] Briefly, 10-μsec flashes of white light of increasing intensities were used to induce bilateral, full-field ERGs; responses were recorded using contact lens electrodes with a UTAS-E 3000 Visual Electrodiagnostic System (LKC Technologies, Inc.)."}, "[1]": {"experiment": "Compound toxicity / proliferative blocks in cells", "format": "cell-based"}, "[2]": {"tested_on": "Ins2^+/Akita (Akita) mouse", "experiment": "Akita mouse chronic efficacy study", "format": "in vivo", "conditions": "49 days from initial injection", "protocol": "FIGS. 17A-17C. […] (FIGS. 17A-17B) Random insulin and C-peptide levels in Ins2^+/Akita mice on Day 58 (21 d post injections). KIRA6 (5 mg/kg)(n=5) and vehicle (n=4). (FIG. 17C) Total β-cell area as a percentage of total pancreas area on Day 55 (18 d post injections). KIRA6 (5 mg/kg)(n=6) and vehicle (n=3).\nBased on low micromolar KIRA6 needed for protection in cell culture, we chose i.p. dosing regimens of 5 or 10 mg/kg b.i.d for Akita chronic efficacy studies to provide similar exposure. We injected KIRA6 into randomized 3-week old male Akita mice when their random blood glucose levels were at prediabetic range (˜200 mg/dl).\n[…] and C57BL/6 Ins2^WT/C96Y (Ins2^+/Akita) mice were obtained from Jackson Laboratories. Glucose levels were measured from tail snips obtained between 9:00 and 11:00 AM using a glucometer (Nova Statstrip Xpress, Data Sciences International). Serum insulin and C-peptide levels were measured using mouse ultra-sensitive insulin and C-peptide ELISA (Mercodia). […]\nMice were fasted for 17 h before i.p. injection with glucose (2 g/kg of body weight). Blood was collected from the tail, and glucose levels were determined by using a glucometer (Nova Statstrip Xpress, Data Sciences International).\nPancreatic sectioning, staining and analysis were done as described previously (Chintinne et al., 2010). […] A minimum of 2% of the total organ volume was stained and measured. […]"}, "IRE1α* [3]": {"target": "T1, IRE1α* (Homo sapiens, UniProt O75460)", "T1 construct": "human IRE1α (residues 469-977, IRE1α*); made in house; host or cells: SF9 insect cells, Bac-to-Bac baculovirus", "T1 sequence (O75460 469-977)": "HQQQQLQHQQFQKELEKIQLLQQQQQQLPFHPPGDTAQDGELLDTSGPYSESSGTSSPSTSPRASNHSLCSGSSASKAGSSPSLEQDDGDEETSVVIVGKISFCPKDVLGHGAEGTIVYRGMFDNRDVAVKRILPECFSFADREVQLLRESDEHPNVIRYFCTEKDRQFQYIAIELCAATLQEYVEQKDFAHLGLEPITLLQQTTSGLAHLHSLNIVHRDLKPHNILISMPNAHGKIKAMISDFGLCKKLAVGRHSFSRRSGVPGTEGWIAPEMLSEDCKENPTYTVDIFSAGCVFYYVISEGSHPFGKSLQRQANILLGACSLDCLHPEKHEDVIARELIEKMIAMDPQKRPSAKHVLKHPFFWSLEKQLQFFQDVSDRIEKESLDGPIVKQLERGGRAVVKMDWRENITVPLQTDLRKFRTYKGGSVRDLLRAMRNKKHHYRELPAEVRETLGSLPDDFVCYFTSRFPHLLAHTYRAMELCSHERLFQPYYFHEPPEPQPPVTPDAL", "experiment": "XBP1 RNA minisubstrate (FRET-quenched) RNase assay", "format": "biochemical", "conditions": "IRE1α*"}, "[4]": {"experiment": "Pharmacokinetic profile in BALB/c mice", "format": "in vivo, mouse", "conditions": "10 mg/kg"}, "IRE1α* [5]": {"target": "T1, IRE1α*", "experiment": "IRE1α* kinase assay (96-well dot blot, 32γ-ATP, STK peptide substrate 2)", "format": "biochemical", "protocol": "FIGS. 16A-16C. Divergent modulation of IRE1α RNase activity using distinct classes of kinase inhibitors. (FIG. 16A) KIRA6 inhibition of IRE1α* kinase activity. IC50 values determined by fitting percent kinase activity (n=3); Urea PAGE of competition cleavage by IRE1α* of XBP1 RNA mini-substrate (FIG. 16B) and α^32P-labeled Ins2 RNA (FIG. 16C), under indicated [KIRA6]; IC50s determined by fitting in-gel fluorescence intensities (XBP1) and phosphorimager (Ins2).\nKIRAs are tested for ability to inhibit IRE1α* kinase and RNase activities in vitro. The XBP1 minisubstrate assay shown in FIGS. 1B-1C, is amenable to 96- or 384-well format, and is used to determine RNase IC50s. In parallel, kinase IC50s for all KIRAs are determined in a 96-well dot blot assay with 32γ-ATP and STK peptide substrate 2 as substrates. Time-dependence of inhibition is determined for all electrophile-containing KIRAs. RNase and kinase assays have been used to profile the KIRAs in FIG. 13, showing a strong correlation between kinase and RNase IC50s. […] Thus, the structure-based design strategy uses these two kinases as counter targets (described below)."}},
  "note": "pIC50: −log10 of the molar value.",
  "data": [
    {"smiles": "CC(C)(C)c1nc(-c2ccc(NC(=O)Nc3cccc(C(F)(F)F)c3)c3ccccc23)c2c(N)nccn12", "note": "[KIRA6, 1-(4-(8-amino-3-tert-butylimidazo[1,5-a]pyrazin-1-yl)naphthalen-1-yl)-3-(3-(trifluoromethyl)phenyl)urea]", "values": [
      {"measurement": "scotopic ERG responsiveness", "setting": "adult rats", "result": "substantially protects against loss of ERG responsiveness, significantly preserving both a- and b-wave amplitudes"},
      {"measurement": "toxicity in cells", "setting": "[1]", "result": "negligible toxicity up to 10 μM"},
      {"measurement": "body weight vs vehicles", "setting": "[2]", "result": "no significant differences in weight from vehicles"},
      {"measurement": "general health", "setting": "[2]", "result": "appeared healthy even after 49 days from initial injection"},
      {"measurement": "pIC50", "setting": "IRE1α* [3]", "result": 6.68},
      {"measurement": "clearance", "setting": "[4]; i.p.", "result": 22.4, "unit": "mL/min/kg"},
      {"measurement": "AUC(0-t)", "setting": "[4]; mouse, ip, plasma, read-out: AUC 0-24 h", "result": 14.3, "unit": "µM·h"},
      {"measurement": "Cmax", "setting": "[4]; mouse, plasma, ip", "result": 3300, "unit": "nM"},
      {"measurement": "half-life", "setting": "[4]; mouse, plasma, ip", "result": 3.9, "unit": "h"},
      {"measurement": "concentration at 4 h", "setting": "[4]; mouse, plasma, ip, read-out: plasma level at 4 hr", "result": 1200, "unit": "nM"},
      {"measurement": "concentration at 8 h", "setting": "[4]; mouse, plasma, ip, read-out: plasma level at 8 hr", "result": 330, "unit": "nM"},
      {"measurement": "pIC50", "setting": "IRE1α* [5]", "result": 6.21}
    ]}
  ]
}
